From patent US10844051B2, “Substituted oxazoles for the treatment of cancer” (THE ROYAL INSTITUTION FOR THE ADCANCEMENT OF …, priority 2015, dated 2020)

Test system: hSTING and/or mSTING
Test: hSTING- or mSTING-dependent ISRE-luc reporter assay in 293T cells
Type: cell-based
Conditions: 24 hours
Experimental: ISRE-luc (reporter), pRL-TK (internal control) and hSTING- or mSTING-expressing plasmids were transiently transfected into 293T cells. Cells were exposed to DMSO vehicle control or compounds for 24 hours. Experiments were done in triplicate.

For FC(F)(F)c1cccc(CCc2nc(-c3ccccc3)c(-c3ccccc3)o2)c1 [Compound 1011], the “activation of hSTING and/or mSTING in ISRE-luc reporter assay” value (shortened to “activation of hSTING and/or mSTING”) (10 μM) was “activate hSTING and/or mSting”.

Fc1cccc(-c2nc(/C=C/c3cc(C(F)(F)F)cc(C(F)(F)F)c3)oc2-c2cccc(F)c2)c1 [Compound 1012] was tested, and the “activation of hSTING and/or mSTING” value (10 μM) was “activate hSTING and/or mSting”.

For Fc1cccc(-c2nc(/C=C/c3cccs3)oc2-c2cccc(F)c2)c1 [Compound 1013], the “activation of hSTING and/or mSTING” value (10 μM) was “activate hSTING and/or mSting”.

COc1cccc(-c2nc(CCc3cc(C(F)(F)F)cc(C(F)(F)F)c3)oc2-c2cccc(OC)c2)c1 [Compound 1033] was tested, and the “activation of hSTING and/or mSTING” value (10 μM) was “activate hSTING and/or mSting”.

For Fc1cccc(-c2nc(/C=C/c3ccoc3)oc2-c2cccc(F)c2)c1 [Compound 1035], the “activation of hSTING and/or mSTING” value (10 μM) was “activate hSTING and/or mSting”.

In the case of Fc1cccc(-c2nc(/C=C/c3ccsc3)oc2-c2cccc(F)c2)c1 [Compound 1036], the “activation of hSTING and/or mSTING” value (10 μM) is reported as “activate hSTING and/or mSting”.

With Fc1cccc(-c2nc(/C=C/c3ccsc3)[nH]c2-c2cccc(F)c2)c1 [Compound 1037] the “activation of hSTING and/or mSTING” value (10 μM) was “activate hSTING and/or mSting”.

For COc1ccc2[nH]cc(CCN(Cc3nc(-c4cccc(F)c4)c(-c4cccc(F)c4)[nH]3)S(=O)(=O)c3ccccc3[N+](=O)[O-])c2c1 [Compound 1039], the “activation of hSTING and/or mSTING” value was “activate hSTING and/or mSTING”.

In the case of O=[N+]([O-])c1ccccc1S(=O)(=O)N(Cc1ccc2[nH]ccc2c1)Cc1nc(-c2cccc(F)c2)c(-c2cccc(F)c2)[nH]1 [Compound 1040], the “activation of hSTING and/or mSTING” value is reported as “activate hSTING and/or mSTING”.

COc1ccc2[nH]cc(CCNCc3nc(-c4cccc(F)c4)c(-c4cccc(F)c4)[nH]3)c2c1 [Compound 1041] was tested, and the “activation of hSTING and/or mSTING” value was “activate hSTING and/or mSTING”.

In the case of Fc1cccc(-c2nc(CNCc3ccc4[nH]ccc4c3)[nH]c2-c2cccc(F)c2)c1 [Compound 1042], the “activation of hSTING and/or mSTING” value is reported as “activate hSTING and/or mSTING”.

With Cn1cc(CNCc2nc(-c3cccc(F)c3)c(-c3cccc(F)c3)[nH]2)c2ccccc21 [Compound 1096] the “activation of hSTING and/or mSTING” value was “activate hSTING and/or mSTING”.

With Brc1ccc(N2CCN(Cc3nc(-c4ccccc4)c(-c4ccccc4)o3)CC2)cc1 [Compound 1097] the “activation of hSTING and/or mSTING” value was “activate hSTING and/or mSTING”.

In the case of Clc1ccc(N2CCN(Cc3nc(-c4ccccc4)c(-c4ccccc4)[nH]3)CC2)cc1Cl [Compound 1098], the “activation of hSTING and/or mSTING” value is reported as “activate hSTING and/or mSTING”.

c1ccc(-c2nc(CN3CCN(c4ccccc4)CC3)[nH]c2-c2ccccc2)cc1 [Compound 1099] was tested, and the “activation of hSTING and/or mSTING” value was “activate hSTING and/or mSTING”.

For OC1(c2ccccc2)CCN(Cc2nc(-c3ccccc3)c(-c3ccccc3)o2)CC1 [Compound 1103], the “activation of hSTING and/or mSTING” value was “activate hSTING and/or mSTING”.

N#Cc1ccc(N2CCN(Cc3nc(-c4cccc(F)c4)c(-c4cccc(F)c4)[nH]3)CC2)cc1 [Compound 1104] was tested, and the “activation of hSTING and/or mSTING” value was “activate hSTING and/or mSTING”.

With N#Cc1ccc(N2CCN(Cc3nc(-c4ccccc4)c(-c4ccccc4)[nH]3)CC2)cc1 [Compound 1120] the “activation of hSTING and/or mSTING” value was “activate hSTING and/or mSTING”.

In the case of O=C(c1ccccc1)N1CCN(Cc2nc(-c3cccc(F)c3)c(-c3cccc(F)c3)[nH]2)CC1 [Compound 1121], the “activation of hSTING and/or mSTING” value is reported as “activate hSTING and/or mSTING”.

O=C(c1ccccc1)N1CCN(Cc2nc(-c3ccccc3)c(-c3ccccc3)[nH]2)CC1 [Compound 1122] was tested, and the “activation of hSTING and/or mSTING” value was “activate hSTING and/or mSTING”.

With O=C(c1ccccc1)N1CCN(Cc2nc(-c3ccccc3)c(-c3ccccc3)o2)CC1 [Compound 1123] the “activation of hSTING and/or mSTING” value was “activate hSTING and/or mSTING”.

With c1ccc(-c2nc(CN3CCC(c4c[nH]c5ccccc45)CC3)oc2-c2ccccc2)cc1 [Compound 1124] the “activation of hSTING and/or mSTING” value was “activate hSTING and/or mSTING”.
